Reference: patent EP4567031A1, “HPK1 INHIBITOR, PREPARATION METHOD THEREFOR, AND USE THEREOF” (Beijing Earthwise Technology Co., Ltd., priority 2022, dated 2024)

Experiments:
HPK1 [1] = target: T1, HPK1 (Homo sapiens, UniProt Q92918); assay: HPK1 ADP-Glo kinase assay; assay type: biochemical; details: 40 µM ATP; 5 nM HPK1; MBP protein substrate
Description: 1×kinase buffer (40 mM Tris-HCl (pH 7.5), 20 mM MgCl2, 0.1 mg/ml BSA, 0.05 mM DTT), 2 µM MBP protein and 40 µM ATP, […] were included in the reaction mixture. The reaction was initiated by adding 5 nM HPK1. After 60 minutes of reaction, the assay was terminated by adding 5 µL of ADP-Glo™ reagent. After 60 minutes, 10 µL of kinase assay reagent was added. After being incubated at room temperature for 60 minutes, the assay plate was read by EnVision multi-function microplate reader.
(§1) The luminescent signal value was converted to the percentage of inhibition. Inhibition % = (maximum value - sample value) / (maximum value - minimum value)×100. The minimum value refers to the value measured in a well without enzyme but with DMSO and substrate, and the maximum value refers to the value measured in a well with DMSO, enzyme and substrate. IC50 values were calculated by XLFit (version 5.3.1.3) in Excel. Equation: Y = bottom + (top - bottom) / (1 + (IC50/X) ^ HillSlope).

Phospho-SLP-76 (Ser376) = Phospho-SLP-76 (Ser376) HTRF assay in Jurkat E6-1 cells; assay type: cell-based; details: Homo sapiens, compound 4 hours, then anti-CD3 antibody 20 minutes, read-out: pSLP76, IC50
Description: A compound was dissolved in DMSO to 10 mM, and then diluted three-fold with DMSO to 10 dosages in a 96-well plate. Then, 3 µL of the diluted compound sample was transferred to a 96-well plate with 97 µL of cell culture medium, and the plate was shaken for 5 minutes. According to the experimental design diagram, 7.5 µL of the diluted compound sample was transferred to a cell plate. Final concentrations of the compound in this assay were 10000.00, 3333.33, 1111.11, 370.37, 123.46, 41.15, 13.72, 4.57, 1.52 and 0.51 nM.
In this assay, the density of Jurkat E6-1 cells was maintained between 3*10^5 to 3*10^6 cells/mL. The cell culture was replaced with fresh culture medium every 2 to 3 days (depending on the cell density).
30 µL of Jurkat E6-1 (300,000 cells) was added to a 96-well plate and incubated in a 37 °C incubator for 1 hour. Then, according to the experimental design diagram, compounds (6×, 7.5 µL) were added to treat the cells for 4 hours, respectively. After 4 hours, purified anti-human anti-CD3 antibodies (6×, 7.5 µL) were added to treat the cells for 20 minutes. After 20 minutes, 15 µL of cell lysis buffer (4×) was added, and the cells were lysed at 25 °C with shaking (250 rpm) for 1 hour. Then, according to the experimental design diagram, 16 µL of cell lysate was transferred to a 384-well plate using a pipette. After the transfer, 4 µL of antibody detection mixture was added. After being placed at room temperature overnight, the plate was read by EnVision multi-function microplate reader to read the FRET signal (the ratio of HTRF 665/615 was calculated from the readings at 665 nm and 615 nm).
The ratio of the signal at 665 nm to the signal at 615 nm was converted to the percentage of inhibition. Inhibition % = (maximum value - sample value) / (maximum value - minimum value)×100. The minimum value refers to the signal value of a well without anti-CD3 antibody stimulation during the treatment of cells, and the maximum value refers to the signal value of a well with anti-CD3 antibody stimulation but without the compound during the treatment of cells. IC50 values were calculated by XLFit (version 5.3.1.3) in excel. Equation: Y = Bottom + (Top-Bottom) / (1 + (IC50/X) ^ HillSlope). Table 4. Results of cellular activity of the compounds

human Pan T cells = assay: Human Pan T cell IL-2 ELISA; assay type: cell-based; details: Homo sapiens, T-cell, 48 h, Anti-CD3 and Anti-CD28, supernatant IL-2 ELISA, read-out: IL-2 release, EC50
Method in brief: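 Human Pan T cells (1×10^6 cells/ml) stimulated with plate-bound anti-CD3 plus anti-CD28 and treated 48 h with compound at 9 final concentrations, 39.063–10000 nM. Supernatant IL-2 by ELISA, expressed as fold over DMSO wells; EC50 from four-parameter logistic fit.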

HPK1 [2] = target: T1, HPK1; assay: HPK1 HTRF kinase assay; assay type: biochemical; details: 1000 µM ATP; 50 nM HPK1; STK1 substrate; read-out: HPK1, IC50
Description: The reaction was initiated by adding 50 nM HPK1. After 120 minutes of reaction, the assay was terminated by adding 10 µL of Detection Mix.
as §1, with “The ratio of the” for “The luminescent”, “signal at 665 nm to the signal at 615 nm” for “signal value”, “= Bottom” for “= bottom”, “+ (Top” for “+ (top”, “- Bottom)” for “- bottom)”

T1 sequence (Q92918 whole entry, species assumed): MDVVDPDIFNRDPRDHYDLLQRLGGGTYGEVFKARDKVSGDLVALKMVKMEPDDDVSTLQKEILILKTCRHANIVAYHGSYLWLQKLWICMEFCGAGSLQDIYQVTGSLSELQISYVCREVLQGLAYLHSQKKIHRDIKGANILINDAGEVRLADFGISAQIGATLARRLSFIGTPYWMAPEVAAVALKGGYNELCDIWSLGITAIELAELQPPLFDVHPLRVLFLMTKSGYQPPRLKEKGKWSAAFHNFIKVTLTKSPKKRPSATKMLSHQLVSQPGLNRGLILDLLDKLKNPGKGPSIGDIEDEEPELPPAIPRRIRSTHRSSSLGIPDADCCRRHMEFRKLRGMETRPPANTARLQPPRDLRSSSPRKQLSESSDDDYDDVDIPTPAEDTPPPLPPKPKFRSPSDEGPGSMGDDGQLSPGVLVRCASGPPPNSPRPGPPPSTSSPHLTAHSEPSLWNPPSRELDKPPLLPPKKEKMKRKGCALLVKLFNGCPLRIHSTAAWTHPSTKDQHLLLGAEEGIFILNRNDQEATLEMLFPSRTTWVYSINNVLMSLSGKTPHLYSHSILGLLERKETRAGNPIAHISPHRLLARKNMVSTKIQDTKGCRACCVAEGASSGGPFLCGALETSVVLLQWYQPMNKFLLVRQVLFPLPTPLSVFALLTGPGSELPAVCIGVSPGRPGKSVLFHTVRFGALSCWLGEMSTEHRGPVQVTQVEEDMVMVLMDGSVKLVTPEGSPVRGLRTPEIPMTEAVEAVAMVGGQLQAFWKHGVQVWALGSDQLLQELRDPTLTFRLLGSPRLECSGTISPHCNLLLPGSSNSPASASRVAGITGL

Row | Structure (SMILES) | IC50 (HPK1 [1]) [nM] | IC50 (Phospho-SLP-76 (Ser376)) [nM] | EC50 (human Pan T cells) [nM] | IC50 (HPK1 [2]) [nM]
1 | CC1(C)c2cc(N3CCOCC3)ccc2Nc2c1cc(-c1cnc3c(Cl)cccn13)c1cc[nH]c(=O)c21 [Example 1] | 0.1 | 121 | – | –
2 | COc1cccn2c(-c3cc4c(c5c(=O)[nH]ccc35)Nc3ccc(N5CCOC(C(C)(C)O)C5)cc3C4(C)C)cnc12 (stereo not shown) [Example 2] | 1.7 | 64 | – | –
3 | COc1cccn2c(-c3cc4c(c5c(=O)[nH]ccc35)Nc3ccc(N5CCOCC5)cc3C4(C)C)cnc12 [Example 3] | 0.3 | 57.5 | 38 | –
4 | CC1(C)c2cc(N3CCOCC3)ccc2Nc2c1cc(-c1cnn3cccnc13)c1cc[nH]c(=O)c21 [Example 4] | – | 38.1 | 4.61 | –
5 | Cc1ccn2c(-c3cc4c(c5c(=O)[nH]ccc35)Nc3ccc(N5CCOCC5)cc3C4(C)C)cnc2c1F [Example 5] | 3.44 | – | 10.8 | –
6 | Cc1ccn2c(-c3cc4c(c5c(=O)[nH]ccc35)Nc3ccc(N5CCOC(C(C)(C)O)C5)cc3C4(C)C)cnc2c1F (stereo not shown) [Example 6] | – | 164 | 13 | –
7 | Cc1ccc2c(-c3cc4c(c5c(=O)[nH]ccc35)Nc3ccc(N5CCOC(C(C)(C)O)C5)cc3C4(C)C)cnn2c1 (stereo not shown) [Example 7] | – | 487 | – | –
8 | COc1cccc2c(-c3cc4c(c5c(=O)[nH]ccc35)Nc3ccc(N5CCOCC5)cc3C4(C)C)cnn12 [Example 8] | – | 103 | 5.5 | –
9 | Cc1ccn2c(-c3cc4c(c5c3CNC5=O)Nc3ccc(N5CCOC(C(C)(C)O)C5)cc3C4(C)C)cnc2c1F (stereo not shown) [Example 9] | – | 57.8 | 3.09 | 20.4
10 | COc1cccn2c(-c3cc4c(c5c3CNC5=O)Nc3ccc(N5CCOCC5)cc3C4(C)C)cnc12 [Example 10] | – | 42.7 | – | 8.39
11 | Cc1ccn2c(-c3cc4c(c5c3CNC5=O)Nc3ccc(N5CCOCC5)cc3C4(C)C)cnc2c1F [Example 11] | – | 73.3 | 13.8 | 7.38
12 | CC1(C)c2cc(N3CCOCC3)ccc2Nc2c1cc(-c1cnc3cccnn13)c1c2C(=O)NC1 [Example 12] | – | 25.9 | 6.67 | 6.99
13 | COc1cccn2c(-c3cc4c(c5c3CCNC5=O)Nc3ccc(N5CCOCC5)cc3C4(C)C)cnc12 [Example 13] | – | 24.4 | – | –
14 | COc1cccn2c(-c3cc4c(c5c3CNC5=O)Nc3cnc(N5CCOCC5)cc3C4(C)C)cnc12 [Example 14] | – | 197 | 49.1 | 30.3
15 | COc1cccc2c(-c3nc4c(c5c3CCNC5=O)Nc3ccc(N5CCOCC5)cc3C4(C)C)cnn12 [Example 15] | – | 72.2 | 3.95 | –
16 | CC1(C)c2cc(N3CCOCC3)ccc2Nc2c1cc(-c1cnn3cccnc13)c1c2C(=O)NC1 [Example 16] | – | 31.6 | 6.81 | 2.85
17 | CC1(C)c2cc(N3CCOCC3)ccc2Nc2c1cc(-c1cnn3c(C#N)cccc13)c1c2C(=O)NC1 [Example 17] | – | 56.9 | 3.72 | 6.31
18 | COc1cccc2c(-c3cc4c(c5c3CNC5=O)Nc3ccc(N5CCOCC5)cc3C4(C)C)cnn12 [Example 18] | – | 66 | 11.8 | 11.7
19 | COc1cccn2c(-c3cc4c(c5c3CNC5=O)Nc3ccc(N5CCOCC5)nc3C4(C)C)cnc12 [Example 20] | – | 83.6 | 11.3 | 5.76
20 | COc1cccc2c(-c3cc4c(c5c3CNC5=O)Nc3ncc(N5CCOCC5)cc3C4(C)C)cnn12 [Example 21] | – | 37 | 8.32 | –
21 | COc1ccnn2c(-c3cc4c(c5c3CNC5=O)Nc3ccc(N5CCOCC5)cc3C4(C)C)cnc12 [Example 31] | – | 58.8 | 3.7 | 24.8
22 | Cn1ccn2c(-c3cc4c(c5c3CNC5=O)Nc3ccc(N5CCOCC5)cc3C4(C)C)cnc2c1=O [Example 41] | – | 13.5 | 6.09 | –
